Measurements: patent US20060111284A1, “Method for treating cancer” (priority 2002, published 2006)

How the values were obtained:
human LNCaP cells = test: Two-step arsenic then Mesna treatment, apoptosis and glutathione in LNCaP cells; type: cell-based
Procedure: Human LNCaP cells, treated with 100 uM arsenic for 2 hours then washed and re-fed with normal medium, develop an elevation in cellular glutathione levels over a 24-hour period. Since exogenous antioxidants are known to be potent inhibitors of apoptotic mechanism, it is believed that internally-produced antioxidants such as glutathione function in a similar manner. […] Although Mesna increases apoptosis alone, the low concentrations of Mesna utilized in this two-step treatment protocol increased apoptosis minimally i.e., to 11 percent from a background of 3 to 5 percent in untreated cells.
(§1) In all of the experiments associated with the investigation of Mesna as a redox clamping agent, as a stand-alone anticancer agent as well as a chemosensitizer, the cell culture medium used was Swim's S-77 medium containing 12 uM cystine, instead of conventional levels of this amino acid (i.e., 50 uM). All other components of the medium were maintained at conventional concentrations. […] The ability of cystine to supply cells with cysteine, which then function as a precursor amino acid for glutathione synthesis, is thought to be responsible for the abnormally high basal levels of glutathione in cultured tumor cell lines.

H4 Rat Hepatoma cells = test: Hydrogen peroxide stress in H4 Rat Hepatoma cells, antioxidant levels; type: cell-based; details: 100 uM hydrogen peroxide for two hours, medium replaced, determined after 24 hours
Procedure: To further exemplify the redox clamping properties of Mesna, stress was induced in H4 Rat Hepatoma cells by treatment with 100 uM hydrogen peroxide for two hours and then the medium was removed and replaced with an anti-cancer agent. The cellular viability, as well as glutathione and metallothionein levels were determined after 24 hours in culture. […] The inhibition of stress induced upswing in antioxidant levels is characteristic of redox clamping agents.
as §1

[1] = system: metastatic and/or relapsed tumors refractory to conventional therapy; test: Clinical study of oral Mesna as single agent in refractory cancer patients; type: in vivo, human
Procedure: From December 1996 to March 1998 a study was performed on 14 ambulatory patients with metastatic and/or relapsed tumors refractory to conventional therapy. Eligibility criteria included histologically-confirmed advanced cancer, patients age was greater than 18 years, with a life expectancy no less than two months. The patients had not undergone major surgery within 2 weeks, or radiotherapy and/or chemotherapy within one month of the study. […] Exclusion criteria included active uncontrolled infection, pregnancy, lactation and any other co-existing medical problems severe enough to prevent full compliance with the study. Objectively measurable disease in the patients was required. All patients gave informed written consent before treatment. 600 mg/m^2 of Mesna was given by oral route four times a day, masked in orange juice for 10 consecutive days. Cycles were repeated every 15 days. No simultaneous chemotherapy and or radiotherapy and no other supportive care was given. The main objective of the study was to determine the anti-tumoral activity and toxicity of Mesna for heavily and or refractory pretreated cancer patients. […] The patients were all previously treated with between two and four different chemotherapy regimens. Mesna was administered as a single agent to all of the patients in the study. The toxic effects of Mesna and number of nodes were assessed during the first cycle of Mesna administration. […] For colorectal cancer a greater than 50% reduction of nodular lesions metastasized to liver was registered, during the second schedule of therapy. For gastric cancer a greater than 50% reduction of a subcutaneous nodule was measured during the second course of Mesna treatment.

human tumor cell lines = test: Growth inhibition of human tumor cell lines in culture; type: cell-based
Description: The present invention provides a method of treating lymphoma, ovarian cancer, colorectal cancer, or gastric cancer comprising administering an effective amount of Mesna to a patient with lymphoma, ovarian cancer, colorectal cancer or gastric cancer. Mesna inhibits the growth of several human tumor cell lines in culture, and there are no strict relationships between the histopathological origin of the cell lines and the sensitivity of the cell lines to Mesna. […] It is further preferred that the patient be administered Mesna for a seven to ten day period. The doses may be cycled. The actual dose will be dependent on the size, type and location of the tumor as well as the overall status of the patient. It is preferred that high concentrations of Mesna be administered intravenously to achieve clamping initially, with further administration of oral doses to maintain the clamped state.
Cancer cell lines were growth inhibited when Mesna was administered on several consecutive days. Mesna has shown good activity in preventing the urotoxicity of oxazaphosphorine compound.
as §1

[2] = within a few minutes after administration; cited from earlier work
[3] = even in very high dose, 1000 mg/kg; cited from earlier work
cells = test: Chemosensitizing by redox clamping agent co-administered with anti-cancer agent (FIG. 2); type: cell-based
Description: The present invention further provides a method of reducing the effective dose of an anti-cancer agent necessary to be effective against cancer comprising administering a redox clamping agent in conjunction with an anti-cancer agent. It is preferred that the redox clamping agent is Mesna or DMSA. Redox clamping agents have the ability to maintain cells in a selected redox state. […] Redox clamping agents are useful in enhancing the therapeutic activity of chemotherapeutic agents such as butyrate that are dependent upon the redox state of the cell. Redox clamping agents are further useful in controlling hyperproliferation of cells and conditions associated with abnormal fluctuations in the redox state of cells. In one aspect, this invention provides a method of treating cancerous tumors comprising administering an effective dose of an anti-cancer agent in conjunction with a redox clamping agent, wherein the redox clamping agent acts as a chemoenhancer or a chemosensitizer. […] The administration of Mesna in conjunction with an anti-cancer agent may be as separate compounds or in a composition formulated and titrated to a dose and in a concentration that would achieve the optimal therapeutic dose of the anti-cancer agent providing a higher tumor cell kill with a lower dose of the anti-cancer agent than the typical therapeutic dose administered to a patient. […]

[4] = 100 uM arsenic 2 hours, washed, then medium containing 100 uM Mesna

O=S(=O)([O-])CCS.[Na+] [Mesna, Sodium-2-mercaptoethane sulphonate]
elevation in glutathione levels (human LNCaP cells; [4]): dramatically diminished | fraction of apoptotic cells compared to arsenic alone (human LNCaP cells; [4]): increased more than two-fold | apoptosis (human LNCaP cells; Mesna alone at the low concentration of the two-step protocol, background 3 to 5 percent in untreated cells): 11% | stress-induced upswings in antioxidant levels (glutathione, metallothionein) (H4 Rat Hepatoma cells): oppose stress-induced upswings in antioxidant levels | reduction of a subcutaneous nodule, gastric cancer ([1]; 600 mg/m^2 oral four times a day, 10 days, second course): greater than 50% | reduction of nodular lesions metastasized to liver, colorectal cancer ([1]; 600 mg/m^2 oral four times a day, 10 days, second schedule of therapy): greater than 50% | objective response ([1]; lung cancer, soft tissue sarcoma, skin metastases of unknown origin, bladder cancer, melanoma, cancer of the cervix): No objective responses | clinical response, ovarian cancer ([1]; two patients, 600 mg/m^2 oral four times a day, 10 days, second and third course): reduced ascites and pain | incorporation of 3H-thymidine, proline and uridine (human tumor cell lines): inhibited | growth of human tumor cell lines in culture (human tumor cell lines; lymphoma, ovarian, colorectal, gastric cancer lines, administered on several consecutive days): inhibits growth | fraction of administered dose transformed into Mesna disulphide [2]: more than 90% | pharmacological and toxicological character [3]: relatively inert

O=S(=O)([O-])CCSSCCS(=O)(=O)[O-].[Na+].[Na+] [Dimesna, Disodium-2,2′-dithiobisethane sulfonate]
interference with the growth inhibitory activity of Mesna (human tumor cell lines): did not interfere

O=C(O)[C@@H](S)[C@@H](S)C(=O)O [DMSA]
stress-induced upswings in antioxidant levels (glutathione, metallothionein) (H4 Rat Hepatoma cells): oppose stress-induced upswings in antioxidant levels

CCCC(=O)O [Butyrate]
concentration of butyrate that induces apoptosis (cells; butyrate alone): greater than 3 mM | concentration of butyrate giving an effective kill (cells; in the presence of a redox clamping agent): ≥ 0.5 mM

[AsH3] [arsenic]
apoptosis of the cells (human LNCaP cells; 100 uM arsenic for 2 hours, washed, re-fed with normal medium): 28%
